Assay results taken from patent US11549142B2, “CETP inhibitors for therapeutic use” (Hoffmann-La Roche Inc., priority 2013, dated 2023).

System: patients recently hospitalized for an Acute Coronary Syndrome (ACS)
Assay: dal-OUTCOMES phase III trial with pharmacogenomic (GWAS) analysis of cardiovascular events by ADCY9 genotype
Format: in vivo, human
Set-up: key to Predicted response: R: Responsive; PR: Partial Responsive; NR: Non Responsive
Protocol: The dalcetrapib mortality and morbidity trial (dal-OUTCOMES) was a double-blind, randomized, placebo-controlled, parallel group, multi-centre study in stable CHD patients recently hospitalized for acute coronary syndrome (ACS). The study was conducted to test the hypothesis that CETP inhibition will reduce the risk of recurrent cardiovascular events in patients with recent ACS by raising levels of HDL-C through CETP inhibition. Eligible patients entered a single-blind placebo run-in period of approximately 4 to 6 weeks to allow for patients to stabilize and for completion of planned revascularization procedures. At the end of the run-in period, eligible patients in stable condition were randomized in a 1:1 ratio to 600 mg of dalcetrapib or placebo on top of evidence-based medical care for ACS. Dalcetrapib is an inhibitor of cholesterol-ester transfer protein (CETP). […] The trial was interrupted in May 2012 by the DSMB on grounds of futility.
Dal-OUTCOMES trial (NC20971) was a double blind, randomized, placebo-controlled, parallel group, multi-center, phase III study to assess the safety and efficacy of the CETP inhibitor dalcetrapib in patients recently hospitalized for an Acute Coronary Syndrome (ACS). At time of the interim analysis the study included 15871 randomized patients, distributed over two treatment arms: placebo (7933 patients) and dalcetrapib (600 mg daily; 7938 patients). […] The dal-OUTCOMES study details can be found in G. Schwartz et al., N. Engl. J. Med. 367; 22, 2012.\
Whole genome analysis was performed in GLP-environment at the Beaulieu-Saucier Pharmacogenomics Centre. The Infinium® HumanOmni25Exome-8v1_A BeadChip (Illumina, San Diego, Calif.) including 2,567,845 genomic markers was used and processed according to the manufacturer's specifications. Approximately 200 ng of genomic DNA was whole-genome amplified, fragmented, and hybridized to locus-specific probes bound to the surface of each BeadChip. DNA was genotyped using a fluorescently labelled single base extension assay. BeadChips were scanned and analyzed using the Illumina® iScan Reader. Infinium® process controls were monitored and all results were within manufacturer's specifications. Scanned images were analyzed using Illumina's GenomeStudio® version 2011.1 with the GenTrain 2.0 cluster algorithm, using a No-Call threshold of 0.15, without manual cluster adjustment and using the manufacturer's Illumina® HumanOmni25Exome-8v1_A cluster file. […] Three genotyping files in PLINK format generated by GenomeStudio® were combined and transformed to binary PLINK format.
Genotyping completion rate for samples and SNPs was set to 98%. SNPs with genotyping plate bias (based on the 96 well plates used to dilute DNA samples) were flagged but not removed as the effect of genetic ancestry could not be excluded. Pairwise IBD was used to conduct close familial relationship checks. We flagged and removed all but one pair-member of related pairs and sample duplicates (IBS2*ratio>0.80) based on a selection of uncorrelated SNPs (r^2<0.1). The pairwise IBS matrix was used as a distance metric to identify cryptic relatedness among samples and sample outliers by multi-dimensional scaling (MDS). The first two MDS components of each subject were plotted including the genotypes of HapMap CEU, JPT-CHB, and YRI data (keeping only founder individuals). Outliers from the main Caucasian cluster were flagged and removed by k-nearest neighbour. (Supplementary FIG. 1) The scree plot and the cumulative explained variance were computed using the smartpca program of the EIGENSOFT suite (version 3.0). Options used were a numoutlieriter (maximum number of outlier removal iterations) of 0 (turned off) and altnormstyle (normalization formula) equal to NO. ^4 (Supplementary FIG. 2)
A statistical analysis plan was developed at the Beaulieu-Saucier Pharmacogenomics Centre and the final version approved prior to genotyping completion in October 2012. […]

SMILES: CCC(CC)CC1(C(=O)Nc2ccccc2SC(=O)C(C)C)CCCCC1 [dalcetrapib, thioisobutyric acid S-(2-{[1-(2-ethyl-butyl)-cyclohexanecarbonyl]-amino}-phenyl) ester]
- Predicted response (rs8061182 genotype AA): R
- HR for time to events, dalcetrapib treatment arm versus placebo arm (rs8061182 genotype AG): 0.99
- Predicted response (rs8061182 genotype AG): PR
- HR for time to events, dalcetrapib treatment arm versus placebo arm (rs8061182 genotype GG): 1.55
- Predicted response (rs8061182 genotype GG): NR
- HR (95% CI) for time to events, dalcetrapib treatment arm only, genotype comparison (rs11647828 AG vs AA): 0.74 (0.6, 0.92)
- HR (95% CI) for time to events, dalcetrapib treatment arm only, genotype comparison (rs11647828 GG vs AA): 0.46 (0.33, 0.63)
- HR for time to events, dalcetrapib treatment arm versus placebo arm (rs11647828 genotype AA): 1.33
- Predicted response (rs11647828 genotype AA): NR
- HR for time to events, dalcetrapib treatment arm versus placebo arm (rs11647828 genotype AG): 0.97
- Predicted response (rs11647828 genotype AG): PR
- HR for time to events, dalcetrapib treatment arm versus placebo arm (rs11647828 genotype GG): 0.61
- Predicted response (rs11647828 genotype GG): R
- HR (95% CI) for time to events, dalcetrapib treatment arm only, genotype comparison (rs12595857 AG vs AA): 0.7 (0.57, 0.87)
- HR (95% CI) for time to events, dalcetrapib treatment arm only, genotype comparison (rs12595857 GG vs AA): 0.45 (0.33, 0.62)
- HR for time to events, dalcetrapib treatment arm versus placebo arm (rs12595857 genotype AA): 1.27
- Predicted response (rs12595857 genotype AA): NR
- HR for time to events, dalcetrapib treatment arm versus placebo arm (rs12595857 genotype AG): 0.95
- Predicted response (rs12595857 genotype AG): PR
- HR for time to events, dalcetrapib treatment arm versus placebo arm (rs12595857 genotype GG): 0.7
- Predicted response (rs12595857 genotype GG): R
- HR (95% CI) for time to events, dalcetrapib treatment arm only, genotype comparison (rs12935810 AA vs GG): 1.87 (1.42, 2.48)
- HR (95% CI) for time to events, dalcetrapib treatment arm only, genotype comparison (rs12935810 GA vs GG): 1.3 (1.02, 1.65)
- HR for time to events, dalcetrapib treatment arm versus placebo arm (rs12935810 genotype AA): 1.28
- Predicted response (rs12935810 genotype AA): NR
- HR for time to events, dalcetrapib treatment arm versus placebo arm (rs12935810 genotype GA): 1.03
- Predicted response (rs12935810 genotype GA): NR
- HR for time to events, dalcetrapib treatment arm versus placebo arm (rs12935810 genotype GG): 0.79
- Predicted response (rs12935810 genotype GG): R
- HR (95% CI) for time to events, dalcetrapib treatment arm only, genotype comparison (rs13337675 AG vs AA): 0.84 (0.68, 1.03)
- HR (95% CI) for time to events, dalcetrapib treatment arm only, genotype comparison (rs13337675 GG vs AA): 0.7 (0.43, 1.14)
- HR for time to events, dalcetrapib treatment arm versus placebo arm (rs13337675 genotype AA): 1.07
- Predicted response (rs13337675 genotype AA): NR
- HR for time to events, dalcetrapib treatment arm versus placebo arm (rs13337675 genotype AG): 0.89
- Predicted response (rs13337675 genotype AG): PR
- HR for time to events, dalcetrapib treatment arm versus placebo arm (rs13337675 genotype GG): 1.03
- Predicted response (rs13337675 genotype GG): PR
- HR (95% CI) for time to events, dalcetrapib treatment arm only, genotype comparison (rs17136707 AG vs AA): 0.62 (0.47, 0.81)
- HR (95% CI) for time to events, dalcetrapib treatment arm only, genotype comparison (rs17136707 GG vs AA): 0.16 (0.02, 1.15)
- HR for time to events, dalcetrapib treatment arm versus placebo arm (rs17136707 genotype AA): 1.06
- Predicted response (rs17136707 genotype AA): NR
- HR for time to events, dalcetrapib treatment arm versus placebo arm (rs17136707 genotype AG): 0.8
- Predicted response (rs17136707 genotype AG): PR
- HR for time to events, dalcetrapib treatment arm versus placebo arm (rs17136707 genotype GG): 0.37
- Predicted response (rs17136707 genotype GG): R
- HR (95% CI) for time to events, dalcetrapib treatment arm only, genotype comparison (rs74702385 AA vs GG): 0.14 (0.02, 1)
- HR (95% CI) for time to events, dalcetrapib treatment arm only, genotype comparison (rs74702385 GA vs GG): 0.63 (0.48, 0.83)
- HR for time to events, dalcetrapib treatment arm versus placebo arm (rs74702385 genotype AA): 0.26
- Predicted response (rs74702385 genotype AA): R
- HR for time to events, dalcetrapib treatment arm versus placebo arm (rs74702385 genotype GA): 0.84
- Predicted response (rs74702385 genotype GA): R
- HR for time to events, dalcetrapib treatment arm versus placebo arm (rs74702385 genotype GG): 1.05
- Predicted response (rs74702385 genotype GG): NR
- HR (95% CI) for time to events, dalcetrapib treatment arm only, genotype comparison (rs111590482 AG vs AA): 0.64 (0.49, 0.84)
- HR (95% CI) for time to events, dalcetrapib treatment arm only, genotype comparison (rs111590482 GG vs AA): 0.15 (0.02, 1.1)
- HR for time to events, dalcetrapib treatment arm versus placebo arm (rs111590482 genotype AA): 1.04
- Predicted response (rs111590482 genotype AA): NR
- HR for time to events, dalcetrapib treatment arm versus placebo arm (rs111590482 genotype AG): 0.85
- Predicted response (rs111590482 genotype AG): R
- HR for time to events, dalcetrapib treatment arm versus placebo arm (rs111590482 genotype GG): 0.26
- Predicted response (rs111590482 genotype GG): R
